Read-outs that look alike come from different tables or passages of the source. No end group written: not given here.
How the values were obtained:
Test in all cases: biochemical
Type in all cases: binding
[1] = target: HLA-DR DRB1*1101 (DR11) (Homo sapiens, UniProt P01903+P01911, A100R/A169T/A87E/I96F/K41T/L162R/M171V/P40S/Q125H/Q178H/Q39Y/Q99D/R42S/S66Y/T262R/V115G/W38E)
[2] = target: HLA-DR DRB1*1302 (DR13) (Homo sapiens, UniProt P01903+P01911, A100E/A169T/K41T/L162R/M171V/P40S/Q125H/Q178H/Q39Y/Q99D/R42S/S66N/T262R/V115G/W38E/Y61H)
[3] = target: HLA-DR DRB1*1501 (DR15) (Homo sapiens, UniProt P01903+P01911)
[4] = target: HLA-DR DRB5*0101 (DR51) (Homo sapiens, UniProt P01903+Q30154)
[5] = target: HLA-DR DRB1*0101 (DR1) (Homo sapiens, UniProt P01903+P01911, A100R/D57E/F55L/F60I/F76Y/I96L/L162R/M171V/P40L/Q125E/R42F/V115G/Y59C)
[6] = target: HLA-DR DRB1*0401 (DR4) (Homo sapiens, UniProt P01903+P01911, A100K/A169T/F76Y/I96L/K127E/L162R/M171V/N62H/P40V/Q125Y/R42H/S133A/S149N/S66Y/V115G/V209L/W38E)
[7] = target: HLA-DR DRB1*0301 (DR3) (Homo sapiens, UniProt P01903+P01911, A100K/A102G/A103R/A169T/F55Y/I96L/K41T/L162R/M171V/P40S/Q125H/Q178H/Q39Y/R42S/S66N/T106N/T262R/W38E/Y61H)
[8] = target: HLA-DR DRB1*0701 (DR7) (Homo sapiens, UniProt P01903+P01911, A100R/A102G/A103Q/D57E/D86V/E43K/F76Y/K127E/L162R/M171V/P40G/Q125H/Q99D/R33Q/R42Y/R54Q/S133A/S66F/T210M/V115G/Y107V/Y59L/Y89S)
[9] = target: HLA-DR DRB4*0101 (DR53) (Homo sapiens, UniProt P01903+P13762, G164S)

Chain of HLA-DR DRB1*0301 (DR3) (P01903 26-254 limits assumed, other chains not shown): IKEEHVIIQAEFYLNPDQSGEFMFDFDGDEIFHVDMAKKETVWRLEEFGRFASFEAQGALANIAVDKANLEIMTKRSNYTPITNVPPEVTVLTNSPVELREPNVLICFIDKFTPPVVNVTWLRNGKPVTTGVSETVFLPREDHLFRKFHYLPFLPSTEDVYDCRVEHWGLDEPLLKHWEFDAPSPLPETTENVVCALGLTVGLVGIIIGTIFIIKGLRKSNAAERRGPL
Chain of HLA-DR DRB1*1302 (DR13) (P01903 26-254 limits assumed, other chains not shown): as above
Chain of HLA-DR DRB1*1101 (DR11) (P01903 26-254 limits assumed, other chains not shown): as above

IQQLLMGTVNIVCPT gave an IC50 ([1]; read-out: DRB1 *1101) of 11100 nM, an IC50 ([2]; read-out: DRBI *1302) of 9 nM and an IC50 ([3]; read-out: DRBI *1501) of 2010 nM. The IC50 ([4]; read-out: DRB5 *0101) was > 55100 nM.
In the case of YEEYVRFDSDVGE, the IC50 ([5]; DRB1 *0101) is reported as ≥ 50000 nM, the IC50 ([6]; DRB1 *0401) is reported as 400 nM and the IC50 ([1]; DRB1 *1101) is reported as ≥ 200000 nM. The IC50 ([4]; DRB5 *0101) was ≥ 200000 nM.
With DHRQLQLSISSCLQQLSLLM the IC50 ([5]; DRB1 *0101) was 1360 nM, the IC50 [7] was 42700 nM and the IC50 ([8]; DRB1 *0701) was 736 nM. The IC50 ([1]; DRB1 *1101) was > 98500 nM, the IC50 ([2]; DRBI *1302) was 69 nM and the IC50 ([3]; DRBI *1501) was 67 nM. The IC50 ([9]; DRB4 *0101) was 532 nM and the IC50 ([4]; DRB5 *0101) was 63800 nM.
Substance AALAAAAAAKAAA has an IC50 ([5]; read-out: DRB1 *0101) of 1.9 nM, an IC50 ([6]; read-out: DRB1 *0401) of 12 nM and an IC50 ([1]; read-out: DRB1 *1101) of 2220 nM. The IC50 ([4]; read-out: DRB5 *0101) was 67 nM.
With EEDIEIIFIQEEEY the IC50 ([1]; read-out: DRB1 *1101) was > 20600 nM and the IC50 ([4]; read-out: DRB5 *0101) was 46100 nM.
For SKIMKLPKLPISNGK, the IC50 ([2]; DRBI *1302) was 6460 nM, the IC50 ([3]; DRBI *1501) was 3570 nM and the IC50 ([9]; DRB4 *0101) was 6740 nM. The IC50 ([4]; DRB5 *0101) was > 10300 nM.
Work on YNFACTELKLVYRDD yielded an IC50 ([5]; DRB1 *0101) of 7520 nM, an IC50 [7] of 346 nM and an IC50 ([6]; DRB1 *0401) of 1980 nM. It also gave an IC50 ([8]; DRB1 *0701) of 2870 nM, an IC50 ([2]; DRBI *1302) of 10200 nM and an IC50 ([9]; DRB4 *0101) of 12900 nM.
Substance DRTLMSAMTNLAALF has an IC50 ([1]; read-out: DRB1 *1101) of 2370 nM, an IC50 ([9]; read-out: DRB4 *0101) of 57 nM and an IC50 ([4]; read-out: DRB5 *0101) of 26100 nM.
Substance YIVMSDWTGGA has an IC50 [7] of 13400 nM.
LCNFKKNIIALLHP gave an IC50 ([2]; read-out: DRBI *1302) of 16 nM, an IC50 ([3]; read-out: DRBI *1501) of 29300 nM and an IC50 ([9]; read-out: DRB4 *0101) of 99 nM. For the same substance, the IC50 ([4]; read-out: DRB5 *0101) was > 42600 nM.
In the case of KSNFLNCYVSGFHPSD, the IC50 ([5]; DRB1 *0101) is reported as 2500 nM, the IC50 [7] is reported as > 900000 nM and the IC50 ([1]; DRB1 *1101) is reported as 5000 nM.
LRTIQQLLMGTVNIV gave an IC50 ([5]; DRB1 *0101) of 13 nM, an IC50 [7] of 23200 nM and an IC50 ([6]; DRB1 *0401) of 108 nM. For the same substance, the IC50 ([8]; DRB1 *0701) was 513 nM, the IC50 ([2]; DRBI *1302) was 6.4 nM and the IC50 ([3]; DRBI *1501) was 265 nM. It also gave an IC50 ([9]; DRB4 *0101) of 15 nM and an IC50 ([4]; DRB5 *0101) of 32100 nM.
Work on EYLILSARDVLAVVS yielded an IC50 [6] of 508 nM, an IC50 [1] of 6860 nM and an IC50 [3] of 2340 nM. The IC50 ([9]; DRB4 *0101) was 2530 nM and the IC50 [4] was 4150 nM.
VASLLTTAEVVVTEI was tested, and the IC50 ([1]; read-out: DRB1 *1101) was > 18700 nM, the IC50 ([2]; read-out: DRBI *1302) was > 10300 nM and the IC50 ([3]; read-out: DRBI *1501) was > 50800 nM. For the same substance, the IC50 ([9]; read-out: DRB4 *0101) was > 26400 nM and the IC50 ([4]; read-out: DRB5 *0101) was > 119000 nM.
In the case of TGYKVLVLNPSV, the IC50 ([1]; read-out: DRB1 *1101) is reported as 26 nM, the IC50 ([2]; read-out: DRBI *1302) is reported as 21 nM and the IC50 ([4]; read-out: DRB5 *0101) is reported as > 11400 nM.
With Ac-NPTKHKWEAAHVAEQLAA the IC50 ([1]; DRB1 *1101) was > 33300 nM, the IC50 ([2]; DRBI *1302) was > 10000 nM and the IC50 ([3]; DRBI *1501) was 200000 nM.
With RGGMVFELANSIVLP the IC50 ([1]; read-out: DRB1 *1101) was > 50000 nM, the IC50 ([2]; read-out: DRBI *1302) was 4.4 nM and the IC50 ([3]; read-out: DRBI *1501) was 94 nM. It also gave an IC50 ([9]; read-out: DRB4 *0101) of 411 nM and an IC50 ([4]; read-out: DRB5 *0101) of 413 nM.
SHDLMLLRISEPAEL gave an IC50 ([2]; read-out: DRBI *1302) of 5.8 nM, an IC50 ([3]; read-out: DRBI *1501) of 1100 nM and an IC50 ([9]; read-out: DRB4 *0101) of 12 nM. For the same substance, the IC50 ([4]; read-out: DRB5 *0101) was ≥ 100000 nM.
With LSHFLKEKGGLEGLI the IC50 ([1]; read-out: DRB1 *1101) was 9460 nM, the IC50 ([2]; read-out: DRBI *1302) was > 12000 nM and the IC50 ([3]; read-out: DRBI *1501) was > 39700 nM. For the same substance, the IC50 ([9]; read-out: DRB4 *0101) was 18700 nM and the IC50 ([4]; read-out: DRB5 *0101) was > 20500 nM.
Substance SHDLMLLRLSEPAK has an IC50 ([5]; read-out: DRB1 *0101) of 56 nM, an IC50 ([7]; read-out: DRB1 *0301) of 2400 nM and an IC50 ([6]; read-out: DRB1 *0401) of 2240 nM.
With KATLQDIVLHLEPQN the IC50 ([5]; DRB1 *0101) was 1200 nM, the IC50 ([6]; DRB1 *0401) was 1990 nM and the IC50 ([8]; DRB1 *0701) was 9090 nM. It also gave an IC50 ([1]; DRB1 *1101) of 25900 nM, an IC50 ([2]; DRBI *1302) of 603 nM and an IC50 ([3]; DRBI *1501) of 6970 nM. For the same substance, the IC50 ([9]; DRB4 *0101) was 159 nM and the IC50 ([4]; DRB5 *0101) was > 9930 nM.
With ALVRQGLAKVA the IC50 ([6]; DRB1 *0401) was 190 nM, the IC50 ([1]; DRB1 *1101) was ≥ 200000 nM and the IC50 ([4]; DRB5 *0101) was > 10000 nM.
For “DPNANPNVDPNANPNVNANPNANPNANP(X4)QKWAAVVVPS”, the IC50 ([1]; read-out: DRB1 *1101) was > 12500 nM, the IC50 ([3]; read-out: DRBI *1501) was > 7580 nM and the IC50 ([9]; read-out: DRB4 *0101) was > 72500 nM. For the same substance, the IC50 ([4]; read-out: DRB5 *0101) was > 2900 nM.
With MLDLQPEITDLYCYE the IC50 ([1]; read-out: DRB1 *1101) was > 15200 nM, the IC50 ([2]; read-out: DRBI *1302) was > 12000 nM and the IC50 ([3]; read-out: DRBI *1501) was > 48400 nM. The IC50 ([9]; read-out: DRB4 *0101) was 20 nM and the IC50 ([4]; read-out: DRB5 *0101) was > 15300 nM.
In the case of YSYFPSIR, the IC50 ([5]; DRB1 *0101) is reported as ≥ 50000 nM, the IC50 [7] is reported as > 900000 nM and the IC50 ([8]; DRB1 *0701) is reported as 7220 nM. For the same substance, the IC50 ([1]; DRB1 *1101) was 20000 nM and the IC50 ([4]; DRB5 *0101) was > 200000 nM.
In the case of SEVYDFAFADLTVVY, the IC50 ([5]; DRB1 *0101) is reported as 31 nM, the IC50 [7] is reported as 3000 nM and the IC50 ([6]; DRB1 *0401) is reported as 260 nM. For the same substance, the IC50 ([8]; DRB1 *0701) was 1850 nM, the IC50 ([1]; DRB1 *1101) was > 18000 nM and the IC50 ([2]; DRBI *1302) was > 13100 nM. For the same substance, the IC50 ([3]; DRBI *1501) was 955 nM and the IC50 ([4]; DRB5 *0101) was 11800 nM.
YAGIRRDGLLLRLVD showed an IC50 [7] of 9.6 nM.
In the case of YKSAHKGFKGVDAQGTLSKI, the IC50 ([5]; DRB1 *0101) is reported as 70 nM, the IC50 [7] is reported as > 900000 nM and the IC50 ([8]; DRB1 *0701) is reported as 108 nM. The IC50 ([1]; DRB1 *1101) was 2000 nM and the IC50 ([4]; DRB5 *0101) was 1330 nM.
With EFAFKDLFVVYRDSI the IC50 ([1]; read-out: DRB1 *1101) was 9500 nM, the IC50 ([2]; read-out: DRBI *1302) was 10000 nM and the IC50 ([3]; read-out: DRBI *1501) was 5360 nM. The IC50 ([4]; read-out: DRB5 *0101) was 6000 nM.
YAR(15)ASQTTLKAKT gave an IC50 ([5]; read-out: DRB1 *0101) of 1.5 nM, an IC50 ([6]; read-out: DRB1 *0401) of 0.46 nM and an IC50 ([8]; read-out: DRB1 *0701) of 1200 nM. For the same substance, the IC50 ([1]; read-out: DRB1 *1101) was 3.9 nM and the IC50 ([4]; read-out: DRB5 *0101) was 3.6 nM.
For TCCYTCGTTVRLCIN, the IC50 ([7]; read-out: DRB1 *0301) was 19900 nM, the IC50 ([6]; read-out: DRB1 *0401) was 719 nM and the IC50 ([8]; read-out: DRB1 *0701) was 63 nM.

— patent US20060079453A1, “Hla binding peptides and their uses” (priority 2002, published 2006)
